Converted amounts (≈) assume the structure as drawn.
What was measured:
Staphylococcus aureus [1] = assay: Antibacterial activity against methicillin-resistant Staphylococcus aureus MRSA17-3 measured by liquid dilution method; format: functional
Staphylococcus aureus [2] = assay: Antibacterial activity against methicillin-sensitive Staphylococcus aureus MSSA17-1 measured by liquid dilution method; format: functional
Staphylococcus aureus [3] = assay: Antibacterial activity against Staphylococcus aureus ATCC 29213 measured by liquid dilution method; format: functional
Enterococcus faecium [4] = assay: Antibacterial activity against Enterococcus faecium EFM17-2 measured by liquid dilution method; format: functional
[5] = tested on: Staphylococcus epidermidis; assay: Antibacterial activity against methicillin-resistant Staphylococcus epidermidis MRSE17-4 measured by liquid dilution method; format: functional
Staphylococcus aureus [6] = assay: Antibacterial activity against methicillin-sensitive Staphylococcus aureus MSSA17-2 measured by liquid dilution method; format: functional
[7] = tested on: Staphylococcus epidermidis; assay: Antibacterial activity against methicillin-sensitive Staphylococcus epidermidis MSSE17-2 measured by liquid dilution method; format: functional
Staphylococcus aureus [8] = assay: Antibacterial activity against vancomycin-intermediate Staphylococcus aureus ATCC 700699 measured by liquid dilution method; format: functional
Staphylococcus aureus [9] = assay: Antibacterial activity against methicillin-resistant Staphylococcus aureus ATCC 43300 measured by liquid dilution method; format: functional
Staphylococcus aureus [10] = assay: Antibacterial activity against methicillin-resistant Staphylococcus aureus MRSA17-5 measured by liquid dilution method; format: functional
Staphylococcus aureus [11] = assay: Antibacterial activity against methicillin-resistant Staphylococcus aureus MRSA17-6 measured by liquid dilution method; format: functional
Staphylococcus aureus [12] = assay: Antibacterial activity against methicillin-resistant Staphylococcus aureus MRSA17-2 measured by liquid dilution method; format: functional
[13] = tested on: Staphylococcus epidermidis; assay: Antibacterial activity against methicillin-resistant Staphylococcus epidermidis MRSE17-1 measured by liquid dilution method; format: functional
Enterococcus faecalis [14] = assay: Antibacterial activity against Enterococcus faecalis ATCC 29212 measured by liquid dilution method; format: functional
[15] = tested on: Staphylococcus epidermidis; assay: Antibacterial activity against methicillin-sensitive Staphylococcus epidermidis MSSE17-3 measured by liquid dilution method; format: functional
[16] = tested on: Staphylococcus epidermidis; assay: Antibacterial activity against methicillin-resistant Staphylococcus epidermidis MRSE17-6 measured by liquid dilution method; format: functional
Enterococcus faecium [17] = assay: Antibacterial activity against Enterococcus faecium EFM17-1 measured by liquid dilution method; format: functional
Staphylococcus aureus [18] = assay: Antibacterial activity against vancomycin-intermediate Staphylococcus aureus ATCC 700788 measured by liquid dilution method; format: functional
Staphylococcus aureus [19] = assay: Antibacterial activity against methicillin-resistant Staphylococcus aureus MRSA17-1 measured by liquid dilution method; format: functional
[20] = tested on: Staphylococcus epidermidis; assay: Antibacterial activity against methicillin-sensitive Staphylococcus epidermidis MSSE17-1 measured by liquid dilution method; format: functional
[21] = tested on: Staphylococcus epidermidis; assay: Antibacterial activity against methicillin-resistant Staphylococcus epidermidis MRSE17-2 measured by liquid dilution method; format: functional
Staphylococcus aureus [22] = assay: Antibacterial activity against methicillin-sensitive Staphylococcus aureus MSSA17-3 measured by liquid dilution method; format: functional
Staphylococcus aureus [23] = assay: Antibacterial activity against methicillin-resistant Staphylococcus aureus ATCC 33591 measured by liquid dilution method; format: functional
[24] = tested on: Staphylococcus epidermidis; assay: Antibacterial activity against methicillin-resistant Staphylococcus epidermidis MRSE17-3 measured by liquid dilution method; format: functional
Enterococcus faecalis [25] = assay: Antibacterial activity against Enterococcus faecalis EFA17-1 measured by liquid dilution method; format: functional
[26] = Plasma protein binding in CD-1 mouse plasma incubated for 4 hrs and assessed as unbound fraction at 2 uM measured by LC/MS/MS analysis; format: ADME, cell-free
[27] = Plasma protein binding in CD-1 mouse plasma incubated for 4 hrs at 2 uM measured by LC/MS/MS analysis; format: ADME, cell-free; conditions: read-out: PPB (converted)

| SMILES | MIC (Staphylococcus aureus [1]) | MIC (Staphylococcus aureus [2]) | MIC (Staphylococcus aureus [3]) | MIC (Enterococcus faecium [4]) | MIC [5] | MIC (Staphylococcus aureus [6]) | MIC [7] | MIC (Staphylococcus aureus [8]) | MIC (Staphylococcus aureus [9]) | MIC (Staphylococcus aureus [10]) | MIC (Staphylococcus aureus [11]) | MIC (Staphylococcus aureus [12]) | MIC [13] | MIC (Enterococcus faecalis [14]) | MIC [15] | MIC [16] | MIC (Enterococcus faecium [17]) | MIC (Staphylococcus aureus [18]) | MIC (Staphylococcus aureus [19]) | MIC [20] | further results |
| --- | --- | --- | --- | --- | --- | --- | --- | --- | --- | --- | --- | --- | --- | --- | --- | --- | --- | --- | --- | --- | --- |
| CNC1=NC(=O)[C@H]([C@H](C)c2c[nH]c3c(F)cccc23)O1 | 1 µg/mL (≈ 3.63 µM) | 1 µg/mL (≈ 3.63 µM) | 8 µg/mL (≈ 29.1 µM) | 4 µg/mL (≈ 14.5 µM) | 0.5 µg/mL (≈ 1.82 µM) | 0.5 µg/mL (≈ 1.82 µM) | 4 µg/mL (≈ 14.5 µM) | 2 µg/mL (≈ 7.27 µM) | 4 µg/mL (≈ 14.5 µM) | 1 µg/mL (≈ 3.63 µM) | 1 µg/mL (≈ 3.63 µM) | 0.5 µg/mL (≈ 1.82 µM) | 0.5 µg/mL (≈ 1.82 µM) | 2 µg/mL (≈ 7.27 µM) | 4 µg/mL (≈ 14.5 µM) | 0.5 µg/mL (≈ 1.82 µM) | 2 µg/mL (≈ 7.27 µM) | 4 µg/mL (≈ 14.5 µM) | 0.5 µg/mL (≈ 1.82 µM) | 2 µg/mL (≈ 7.27 µM) | MIC [21]: 0.25 µg/mL (≈ 0.908 µM); MIC (Staphylococcus aureus [22]): 0.5 µg/mL (≈ 1.82 µM); MIC (Staphylococcus aureus [23]): 8 µg/mL (≈ 29.1 µM); MIC [24]: 0.5 µg/mL (≈ 1.82 µM); MIC (Enterococcus faecalis [25]): 2 µg/mL (≈ 7.27 µM) |
| CNC1=NC(=O)[C@@H]([C@@H](C)c2c[nH]c3cc(F)ccc23)O1 | > 128 µg/mL | > 128 µg/mL | > 128 µg/mL | > 128 µg/mL | > 128 µg/mL | > 128 µg/mL | > 128 µg/mL | > 128 µg/mL | > 128 µg/mL | > 128 µg/mL | > 128 µg/mL | > 128 µg/mL | > 128 µg/mL | > 128 µg/mL | > 128 µg/mL | > 128 µg/mL | > 128 µg/mL | > 128 µg/mL | > 128 µg/mL | > 128 µg/mL | MIC [21]: > 128 µg/mL; MIC (Staphylococcus aureus [22]): > 128 µg/mL; MIC (Staphylococcus aureus [23]): > 128 µg/mL; MIC [24]: > 128 µg/mL; MIC (Enterococcus faecalis [25]): > 128 µg/mL |
| CNC1=NC(=O)[C@@H]([C@@H](C)c2c[nH]c3cccc(C)c23)O1 | > 128 µg/mL | > 128 µg/mL | > 128 µg/mL | > 128 µg/mL | > 128 µg/mL | > 128 µg/mL | > 128 µg/mL | > 128 µg/mL | > 128 µg/mL | > 128 µg/mL | > 128 µg/mL | > 128 µg/mL | > 128 µg/mL | > 128 µg/mL | > 128 µg/mL | > 128 µg/mL | > 128 µg/mL | > 128 µg/mL | > 128 µg/mL | > 128 µg/mL | MIC [21]: > 128 µg/mL; MIC (Staphylococcus aureus [22]): > 128 µg/mL; MIC (Staphylococcus aureus [23]): > 128 µg/mL; MIC [24]: > 128 µg/mL; MIC (Enterococcus faecalis [25]): > 128 µg/mL |
| CNC1=NC(=O)[C@H]([C@H](C)c2c[nH]c3cccc(C)c23)O1 | 0.5 µg/mL (≈ 1.84 µM) | 1 µg/mL (≈ 3.69 µM) | 1 µg/mL (≈ 3.69 µM) | > 128 µg/mL | 0.5 µg/mL (≈ 1.84 µM) | 1 µg/mL (≈ 3.69 µM) | 0.25 µg/mL (≈ 0.921 µM) | 0.5 µg/mL (≈ 1.84 µM) | 0.5 µg/mL (≈ 1.84 µM) | 1 µg/mL (≈ 3.69 µM) | 0.5 µg/mL (≈ 1.84 µM) | 0.5 µg/mL (≈ 1.84 µM) | 0.5 µg/mL (≈ 1.84 µM) | > 128 µg/mL | 0.25 µg/mL (≈ 0.921 µM) | 0.5 µg/mL (≈ 1.84 µM) | > 128 µg/mL | 0.5 µg/mL (≈ 1.84 µM) | 0.5 µg/mL (≈ 1.84 µM) | 0.125 µg/mL (≈ 0.461 µM) | fraction unbound at 4 h, 2 µM [26]: 0.276; fraction unbound at 4 h, 2 µM [27]: 0.276; MIC [21]: 0.5 µg/mL (≈ 1.84 µM); MIC (Staphylococcus aureus [22]): 0.5 µg/mL (≈ 1.84 µM); MIC (Staphylococcus aureus [23]): 1 µg/mL (≈ 3.69 µM); MIC [24]: 0.125 µg/mL (≈ 0.461 µM); MIC (Enterococcus faecalis [25]): > 128 µg/mL |
| CNC1=NC(=O)[C@@H]([C@@H](C)c2c[nH]c3c(F)cccc23)O1 | 8 µg/mL (≈ 29.1 µM) | 8 µg/mL (≈ 29.1 µM) | > 128 µg/mL | > 128 µg/mL | > 128 µg/mL | 4 µg/mL (≈ 14.5 µM) | 2 µg/mL (≈ 7.27 µM) | > 128 µg/mL | > 128 µg/mL | 8 µg/mL (≈ 29.1 µM) | 8 µg/mL (≈ 29.1 µM) | 8 µg/mL (≈ 29.1 µM) | 4 µg/mL (≈ 14.5 µM) | > 128 µg/mL | > 128 µg/mL | 2 µg/mL (≈ 7.27 µM) | > 128 µg/mL | > 128 µg/mL | 8 µg/mL (≈ 29.1 µM) | 32 µg/mL (≈ 116 µM) | MIC [21]: 1 µg/mL (≈ 3.63 µM); MIC (Staphylococcus aureus [22]): 4 µg/mL (≈ 14.5 µM); MIC (Staphylococcus aureus [23]): > 128 µg/mL; MIC [24]: > 128 µg/mL; MIC (Enterococcus faecalis [25]): > 128 µg/mL |
